# Patent US8529874B2, “Peptide imaging agents” (GE Healthcare AS, priority 2007, dated 2013)
# Bridge positions count the residues as written; N and C are the ends.
# Key:
# HCT-15 tumours = assay: In vivo optical imaging of HCT-15 tumour slice against normal colon; parameters: species or system BALB c/A nude (Bom) mice
# Description: 54 Female BALB c/A nude (Bom) mice were used in the study. The use of the animals was approved by the local ethics committee. BALB c/A nude is an inbred immunocompromised mouse strain with a high take rate for human tumours as compared to other nude mice strains. The mice were 4 weeks old upon arrival and with a body weight of approx. 20 grams at the start of the study. The animals were housed in individually ventilated cages (IVC, Scanbur BK) with HEPA filtered air. The animals had ad libitum access to “Rat and Mouse nr. 3 Breeding” diet (Scanbur BK) and tap water acidified by addition of HCl to a molar concentration of 1 mM (pH 3.0).
# The colon cancer cell HCT-15 is derived from human colon carcinomas and is reported to express c-Met according to Zeng et al [Clin. Exp. Metastasis, 21, 409-417. (2004)]. The cell line was proven to be tumorigenic when inoculated subcutaneously into nude mice [Flatmark et al, Eur. J. Cancer 40, 1593-1598 (2004)].
# HCT-15 cells were grown and prepared for subcutaneous inoculation in RPMI (Sigma Cat# R0883) with 10% serum and penicillin/streptomycin. Stocks were made at passage number four (P4) and frozen down for storage in liquid nitrogen at 3×10^7 cells/vial in the culture media containing 5% DMSO. On the day of the transplantation, the cells were thawed quickly in a 37° C. water bath (approx. 2 min), washed and resuspended in PBS/2% serum (centrifugation at 1200 rpm for 10 min). Thorough mixing of cells in the vials was ensured every time cells were aspirated into the dosing syringe. Volumes of 0.1 ml of cell suspension were injected s.c. at the shoulder and at the back using a fine bore needle (25 G) while the animals were under light gas anaesthesia. The animals were then returned to their cages and the tumours were allowed to grow for 13-17 days. […]
# Imaging was performed through a clinical laparoscope adapted to use a light source to excite the reporter and a filtering system to extract the fluorescence component. […] The images were visually scored using the standard scoring system employed for receiver operating characteristic analysis.
# mouse c-Met/Fc chimera = biological target: T1, mouse c-Met/Fc chimera (Mus musculus, UniProt P16056); assay: In vitro fluorescence polarisation assay, binding to mouse c-Met; details: dye-labelled peptide 20 nM, c-Met/Fc 0-150 nM (tested range)
# T1 construct: purchased R&D Systems
# Description: The principle of the fluorescence polarisation method can briefly be described as follows:
# Monochromatic light passes through a horizontal polarizing filter and excites fluorescent molecules in the sample. Only those molecules that oriented properly in the vertically polarized plane adsorb light, become excited, and subsequently emit light. The emitted light is measured in both horizontal and vertical planes. The anistropy value (A), is the ratio between the light intensities following the equation
# The fluorescence anistropy measurements were performed in 384-well microplates in a volume of 10 μL in binding buffer (PBS, 0.01% Tween-20, pH 7.5) using a Tecan Safire fluorescence polarisation plate reader (Tecan, US) at ex646/em678 nm. The concentration of dye-labelled peptide was held constant (20 nM) and the concentrations of the human or mouse c-Met/Fc chimera (R&D Systems) or Semaphorin 6A (R&D Systems) were varied from 0-150 nM. Binding mixtures were equilibrated in the microplate for 10 min at 30° C. The observed change in anistropy was fit to the equation
# [formula] where robs is the observed anistropy, rfree is the anistropy of the free peptide, rbound is the anistropy of the bound peptide, KD is the dissociation constant, cMet is the total c-Met concentration, and P is the total dye-labelled peptide concentration. […]
# T1 sequence (P16056 with tags, fused parts or gaps limits assumed): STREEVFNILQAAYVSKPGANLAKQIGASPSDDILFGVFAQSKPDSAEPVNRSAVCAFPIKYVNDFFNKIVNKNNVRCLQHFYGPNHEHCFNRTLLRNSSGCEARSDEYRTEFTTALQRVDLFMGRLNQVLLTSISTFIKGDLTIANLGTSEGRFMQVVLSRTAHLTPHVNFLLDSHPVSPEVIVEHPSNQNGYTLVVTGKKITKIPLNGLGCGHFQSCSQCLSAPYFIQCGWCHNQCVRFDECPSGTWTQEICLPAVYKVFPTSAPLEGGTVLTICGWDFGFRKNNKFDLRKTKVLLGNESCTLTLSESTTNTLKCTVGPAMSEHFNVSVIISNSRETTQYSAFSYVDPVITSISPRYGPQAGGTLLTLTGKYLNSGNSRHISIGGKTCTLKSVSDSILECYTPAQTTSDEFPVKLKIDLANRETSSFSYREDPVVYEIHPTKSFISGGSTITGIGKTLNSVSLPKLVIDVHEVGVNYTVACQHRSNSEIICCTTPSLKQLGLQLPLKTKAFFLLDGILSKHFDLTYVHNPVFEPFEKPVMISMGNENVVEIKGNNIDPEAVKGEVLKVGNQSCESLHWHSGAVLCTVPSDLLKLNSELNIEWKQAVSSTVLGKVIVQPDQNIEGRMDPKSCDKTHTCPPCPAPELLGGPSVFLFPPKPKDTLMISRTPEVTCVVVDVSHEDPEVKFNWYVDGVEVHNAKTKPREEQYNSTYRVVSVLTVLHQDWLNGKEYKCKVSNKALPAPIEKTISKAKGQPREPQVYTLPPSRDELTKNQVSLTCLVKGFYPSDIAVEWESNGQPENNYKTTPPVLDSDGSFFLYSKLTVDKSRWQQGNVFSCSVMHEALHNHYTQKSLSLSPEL
Substance,"visual identification of tumour against background (HCT-15 tumours; 1 nmol per animal i.v., HCT-15 tumour slice vs normal colon)","tumour to normal ratio (HCT-15 tumours; 1 nmol per animal i.v., HCT-15 tumour slice vs normal colon, ex vivo, 635 nm excitation)","tumour: background ratios (summary in words) (HCT-15 tumours; animal model of cancer, Example 7)",binding to mouse c-Met (in words) (mouse c-Met/Fc chimera)
"Ac-TGECTCPYWEFRPCECGSYSGAGGGK(ε-Cy5**)-NH2 (Ac-TGECTCPYWEFRPCECGSYSGAGGGK-NH2; disulfide 6-14; disulfide 4-16 (inferred); not fully specified (residue 26); printed as Ac-TGECTCPYWEFRPCECGSYSGAGGGK(ε-Cy5**)-NH2) [Compound 7, negative control; scrambled control peptide with the same dye as Compound 5]",nothing was discernible against background,1.04,did not discriminate between tumour and background,–
"Ac-Ala-Gly-Ser-Cys-Tyr-Cys-Ser-Gly-Pro-Pro-Arg-Phe-Glu-Cys-Trp-Cys-Tyr-Glu-Thr-Glu-Gly-Thr-Gly-Gly-Gly-Lys(Cy5)-NH2 (Ac-AGSCYCSGPPRFECWCYETEGTGGGK(Cy5)-NH2; also: two disulfides, pairing not given here) [Compound 3]",–,–,–,no binding
